Legend:
[1] = tested on: intraperitoneal macrophage cells of a mouse; assay: Measurement of macrophage activity: nitrite ion concentration (NO release, Griess reagent); type: cell-based; settings: test compound 50 μM; for Nitrite Ion Concentration Relative Value: relative to TDCM = 1.0, 48 hours; for Nitrite Ion Concentration Actual Value: cultured 48 hours, mouse peritoneal macrophages, mean ± S.E.
Method: Macrophage activation indicates the condition wherein the adhesion to the tissue and the motility of the macrophages are improved, so that bacteria entering from outside or denatured self-components are phagocytized. Macrophage activity can be measured using the release of cytokine or active oxygen as an index. In Experimental Example 1 below, the macrophage activation ability was measured using the nitrite ion concentration as an index.
The present experiment was conducted with reference to the method described in Sakurai T., Kaise T., Matsubara C. Chem. Res. Toxicol. 1998, 11, 273-283. Specifically, ICR male mice (6 to 7 weeks old) were anesthetized, a phosphate buffer containing 0.05% EDTA was injected intraperitoneally, an intraperitoneal lavage was performed, and a peritoneal macrophage was aseptically recovered. After the cells were washed with an RPMI-1640 medium (containing 10% bovine fetal serum), the macrophage cells were inoculated so that there were 1×10^5 cells/100 μl in each well of the 96-well plate. After being pre-incubated for 2 hours, the test compound (50 μM) was added to the culture medium, and cultured for 48 hours. Afterwards, a Griess test reagent was added to the culture medium, which was allowed to stand for 10 minutes; the absorbency thereof was measured with a microplate reader (filter: 550/630 nm), after which the nitrite ion concentration (NO2^−) was determined from a calibration curve. The reproducibility of the above-described test was confirmed by 3 wells, the experiment was repeated at least three times using different mice, and the mean values ±S.E. were determined.

[2] = tested on: rabbit neutrophil; assay: Influence on rabbit neutrophil H2O2 production (H2DCFDA fluorescence); type: cell-based; settings: 2 hours at 37° C., rabbit neutrophils
Method: The neutrophils (1.0×10^5 cells/100 μl) were inoculated in a 96-well plate (Falcon).

[3] = tested on: rabbit neutrophil; assay: Influence on the phagocytic action of neutrophils (opsonized ampicillin resistant E. coli, colony count); settings: neutrophils treated 1 hour, then opsonized E. coli 1 hour
[4] = tested on: Clostridium perfringens (Type A NTCT8237); type: in vivo, ICR mice; settings: emulsion solution 100 mg/mouse, 3 hours before C. perfringens 2.4×10^7 cells/mouse

| SMILES | Nitrite Ion Concentration Relative Value [1] | Nitrite Ion Concentration Actual Value [1] | H2O2 production ([2]; 50 μM) | H2O2 production ([2]; 100 μM) | The number of colonies ([3]; 50 μM) | The number of colonies ([3]; 100 μM) | The number surviving/Administered group After 2 hr [4] | The number surviving/Administered group After 6 hr [4] | The number surviving/Administered group After 12 hr [4] | The number surviving/Administered group After 24 hr [4] | The number surviving/Administered group after 48 hr [4] |
| --- | --- | --- | --- | --- | --- | --- | --- | --- | --- | --- | --- |
| CCCCCCCCCCCCCCC(CCCCCCCCCCCCCC)C(=O)NCC1O[C@H](O[C@H]2OC(CNC(=O)C(CCCCCCCCCCCCCC)CCCCCCCCCCCCCC)[C@@H](O)C(O)C2O)C(O)C(O)[C@@H]1O (stereo partly drawn) [Ex. 5, 6,6′-bis-N-(2-tetradecylhexadecanoylamino)-6,6′-dideoxy-α,α′-trehalose] | 8.8 | 4419 ± 4250 nM | 0.26 ± 0.04 nmol/10^5 Cells | 0.29 ± 0.04 nmol/10^5 Cells | 250 ± 16 | 450 ± 31 | 4/4 | 4/4 | 4/4 | 4/4 | 4/4 |
| CCCCCCCCCCCCCC(CCCCCCCCCCCCC)C(=O)NCC1O[C@H](O[C@H]2OC(CNC(=O)C(CCCCCCCCCCCCC)CCCCCCCCCCCCC)[C@@H](O)C(O)C2O)C(O)C(O)[C@@H]1O (stereo partly drawn) [Ex. 4, 6,6′-bis-N-(2-tridecylpentadecanoylamino)-6,6′-dideoxy-α,α′-trehalose] | 7.6 | 3676 ± 385 nM | 0.15 ± 0.02 nmol/10^5 Cells | 0.18 ± 0.02 nmol/10^5 Cells | 200 ± 15 | 350 ± 30 | 4/4 | 4/4 | 4/4 | 4/4 | 4/4 |
| CCCCCCCCCCCCCCCCC(CCCCCCCCCCCCCCCC)C(=O)NCC1O[C@H](O[C@H]2OC(CNC(=O)C(CCCCCCCCCCCCCCCC)CCCCCCCCCCCCCCCC)[C@@H](O)C(O)C2O)C(O)C(O)[C@@H]1O (stereo partly drawn) [Ex. 7, 6,6′-bis-N-(2-hexadecyloctadecanoylamino)-6,6′-dideoxy-α,α′-trehalose] | 0.6 | 300 ± 229 nM | 0.10 ± 0.03 nmol/10^5 Cells | 0.15 ± 0.02 nmol/10^5 Cells | 110 ± 7 | 200 ± 8 | – | – | – | – | – |
| CCCCCCCCCCCC(CCCCCCCCCCC)C(=O)NCC1O[C@H](O[C@H]2OC(CNC(=O)C(CCCCCCCCCCC)CCCCCCCCCCC)[C@@H](O)C(O)C2O)C(O)C(O)[C@@H]1O (stereo partly drawn) [Ex. 2, 6,6′-bis-N-(2-undecyltridecanoylamino)-6,6′-dideoxy-α,α′-trehalose] | 3.9 | 1973 ± 973 nM | 0.25 ± 0.02 nmol/10^5 Cells | 0.26 ± 0.02 nmol/10^5 Cells | 89 ± 21 | 172 ± 13 | – | – | – | – | – |
| CCCCCCCCCCCCCCC[C@@H](O)[C@@H](CCCCCCCCCCCCCC)C(=O)OCC1O[C@H](O[C@H]2OC(COC(=O)[C@H](CCCCCCCCCCCCCC)[C@H](O)CCCCCCCCCCCCCCC)[C@@H](O)[C@H](O)C2O)C(O)[C@@H](O)[C@@H]1O (some centres unmarked) [TDCM, trehalose 6,6′-dicorynomycolate, reference compound] | 1.0 | 500 ± 271 nM | 0.18 ± 0.02 nmol/10^5 Cells | 0.21 ± 0.02 nmol/10^5 Cells | 50 ± 10 | 87 ± 10 | 4/4 | 4/4 | 4/4 | 4/4 | 4/4 |
| CCCCCCCCCCCCC(CCCCCCCCCCCC)C(=O)NCC1O[C@H](O[C@H]2OC(CNC(=O)C(CCCCCCCCCCCC)CCCCCCCCCCCC)[C@@H](O)C(O)C2O)C(O)C(O)[C@@H]1O (stereo partly drawn) [Ex. 3, 6,6′-bis-N-(2-dodecyltetradecanoylamino)-6,6′-dideoxy-α,α′-trehalose] | 2.4 | 1202 ± 647 nM | 0.18 ± 0.03 nmol/10^5 Cells | 0.20 ± 0.03 nmol/10^5 Cells | 58 ± 9 | 112 ± 15 | – | – | – | – | – |
| CCCCCCCCCCCCCCCC(CCCCCCCCCCCCCCC)C(=O)NCC1O[C@H](O[C@H]2OC(CNC(=O)C(CCCCCCCCCCCCCCC)CCCCCCCCCCCCCCC)[C@@H](O)C(O)C2O)C(O)C(O)[C@@H]1O (stereo partly drawn) [Ex. 6, 6,6′-bis-N-(2-pentadecylheptadecanoylamino)-6,6′-dideoxy-α,α′-trehalose] | 1.7 | 851 ± 608 nM | 0.11 ± 0.03 nmol/10^5 Cells | 0.16 ± 0.03 nmol/10^5 Cells | 120 ± 11 | 220 ± 12 | – | – | – | – | – |
| CCCCCCCCCCC(CCCCCCCCCC)C(=O)NCC1O[C@H](O[C@H]2OC(CNC(=O)C(CCCCCCCCCC)CCCCCCCCCC)[C@@H](O)C(O)C2O)C(O)C(O)[C@@H]1O (stereo partly drawn) [Ex. 1, 6,6′-bis-N-(2-decyldodecanoylamino)-6,6′-dideoxy-α,α′-trehalose] | 0.4 | 200 ± 133 nM | 0.33 ± 0.05 nmol/10^5 Cells | 0.38 ± 0.05 nmol/10^5 Cells | 250 ± 11 | 487 ± 20 | 4/4 | 4/4 | 4/4 | 4/4 | 4/4 |

Reference: patent US20100093993A1 (priority 2007, published 2010)
